ChEMBL document CHEMBL1201862, “PubChem BioAssay data set” (2004)
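Interpolation was linear, between the two tested concentrations surrounding the appropriate level; five concentrations were tested over 48 hours in 96-well plates. GI50 is the concentration that inhibits growth by half.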 Active and inactive are the calls of the source. No stated cut-off is given here; in the data, active = GI50 up to about 1.1 µM and inactive = higher.

Assays:
Experiment in all cases: growth of human tumour cells (NCI), 48 h
786-0 = system: 786-0
A498 = system: A498
A549 = system: A549
ACHN = system: ACHN
BT-549 = system: BT-549
CAKI-1 = system: CAKI-1
CCRF-CEM = system: CCRF-CEM
COLO 205 = system: COLO 205
DU-145 = system: DU-145
EKVX = system: EKVX
HCC 2998 = system: HCC 2998
HCT-116 = system: HCT-116
HCT-15 = system: HCT-15
HL-60 = system: HL-60
HOP-92 = system: HOP-92
HT-29 = system: HT-29
Hs-578T = system: Hs-578T
IGROV-1 = system: IGROV-1
K562 = system: K562
KM12 = system: KM12
LOX IMVI = system: LOX IMVI
M14 = system: M14
MCF7 = system: MCF7
MDA-MB-231 = system: MDA-MB-231
MDA-MB-435 = system: MDA-MB-435
MDA-N = system: MDA-N
MOLT-4 = system: MOLT-4
Malme-3M = system: Malme-3M
NCI-H226 = system: NCI-H226
NCI-H23 = system: NCI-H23
NCI-H460 = system: NCI-H460
NCI-H522 = system: NCI-H522
NCI/ADR-RES = system: NCI/ADR-RES
OVCAR-3 = system: OVCAR-3
OVCAR-4 = system: OVCAR-4
OVCAR-5 = system: OVCAR-5
OVCAR-8 = system: OVCAR-8
PC-3 = system: PC-3
RPMI-8226 = system: RPMI-8226
RXF 393 = system: RXF 393
SF-268 = system: SF-268
SF-295 = system: SF-295
SF-539 = system: SF-539
SK-MEL-28 = system: SK-MEL-28
SK-MEL-2 = system: SK-MEL-2
SK-MEL-5 = system: SK-MEL-5
SK-OV-3 = system: SK-OV-3
SN12C = system: SN12C
SNB-19 = system: SNB-19
SNB-75 = system: SNB-75
SR = system: SR
SW-620 = system: SW-620
T47D = system: T47D
U-251 = system: U-251
UACC-257 = system: UACC-257
UACC-62 = system: UACC-62
UO-31 = system: UO-31
HOP-62 = system: HOP-62
TK-10 = system: TK-10

O=C(/C=C/c1ccccc1)CCC1C(=O)c2ccccc2C1=O was tested, and the GI50 (786-0) was > 100 µM (inactive), the GI50 (A498) was > 100 µM (inactive) and the GI50 (A549) was > 100 µM (inactive). For the same compound, the GI50 (ACHN) was > 100 µM (inactive), the GI50 (BT-549) was > 100 µM (inactive) and the GI50 (CAKI-1) was > 100 µM (inactive). For the same compound, the GI50 (CCRF-CEM) was > 100 µM (inactive), the GI50 (COLO 205) was 64.9 µM (inactive) and the GI50 (DU-145) was > 100 µM (inactive). For the same compound, the GI50 (EKVX) was > 100 µM (inactive), the GI50 (HCC 2998) was > 100 µM (inactive) and the GI50 (HCT-116) was > 100 µM (inactive). For the same compound, the GI50 (HCT-15) was 42.6 µM, the GI50 (HL-60) was > 100 µM (inactive) and the GI50 (HOP-92) was > 100 µM (inactive). The GI50 (HT-29) was > 100 µM (inactive), the GI50 (Hs-578T) was > 100 µM (inactive) and the GI50 (IGROV-1) was > 100 µM (inactive). The GI50 (K562) was > 100 µM (inactive), the GI50 (KM12) was > 100 µM (inactive) and the GI50 (LOX IMVI) was > 100 µM (inactive). The GI50 (M14) was > 100 µM (inactive), the GI50 (MCF7) was > 100 µM (inactive) and the GI50 (MDA-MB-231) was > 100 µM (inactive). For the same compound, the GI50 (MDA-MB-435) was > 100 µM (inactive), the GI50 (MDA-N) was 43.8 µM (inactive) and the GI50 (MOLT-4) was > 100 µM (inactive). For the same compound, the GI50 (Malme-3M) was > 100 µM (inactive), the GI50 (NCI-H226) was > 100 µM (inactive) and the GI50 (NCI-H23) was > 100 µM (inactive). The GI50 (NCI-H460) was > 100 µM (inactive), the GI50 (NCI-H522) was > 100 µM (inactive) and the GI50 (NCI/ADR-RES) was > 100 µM (inactive). For the same compound, the GI50 (OVCAR-3) was > 100 µM (inactive), the GI50 (OVCAR-4) was 31.3 µM (inactive) and the GI50 (OVCAR-5) was > 100 µM (inactive). The GI50 (OVCAR-8) was > 100 µM (inactive), the GI50 (PC-3) was > 100 µM (inactive) and the GI50 (RPMI-8226) was 73.6 µM (inactive). For the same compound, the GI50 (RXF 393) was > 100 µM (inactive), the GI50 (SF-268) was > 100 µM (inactive) and the GI50 (SF-295) was > 100 µM (inactive). The GI50 (SF-539) was > 100 µM (inactive), the GI50 (SK-MEL-28) was > 100 µM (inactive) and the GI50 (SK-MEL-2) was > 100 µM (inactive). For the same compound, the GI50 (SK-MEL-5) was > 100 µM (inactive), the GI50 (SK-OV-3) was > 100 µM (inactive) and the GI50 (SN12C) was > 100 µM (inactive). For the same compound, the GI50 (SNB-19) was > 100 µM (inactive), the GI50 (SNB-75) was 19.7 µM (inactive) and the GI50 (SR) was 66.2 µM (inactive). The GI50 (SW-620) was > 100 µM (inactive), the GI50 (T47D) was > 100 µM (inactive) and the GI50 (U-251) was > 100 µM (inactive). For the same compound, the GI50 (UACC-257) was > 100 µM (inactive), the GI50 (UACC-62) was > 100 µM (inactive) and the GI50 (UO-31) was > 100 µM (inactive).

For CCCCCC(/C=N/N)C(O)(C(F)(F)F)C(F)(F)F (centres undefined), the GI50 (786-0) was 2.97 µM (inactive), the GI50 (A498) was 2.44 µM (inactive) and the GI50 (A549) was 4.91 µM (inactive). For the same compound, the GI50 (ACHN) was 4.15 µM (inactive), the GI50 (BT-549) was 4.04 µM (inactive) and the GI50 (CAKI-1) was 2.47 µM (inactive). The GI50 (CCRF-CEM) was > 10 µM (inactive), the GI50 (COLO 205) was 1.86 µM (inactive) and the GI50 (DU-145) was 1.9 µM (inactive). For the same compound, the GI50 (EKVX) was 2.58 µM (inactive), the GI50 (HCC 2998) was 6.78 µM (inactive) and the GI50 (HCT-116) was 3.99 µM (inactive). For the same compound, the GI50 (HCT-15) was 3.48 µM, the GI50 (HL-60) was > 10 µM (inactive) and the GI50 (HOP-62) was 4.78 µM (inactive). For the same compound, the GI50 (HOP-92) was 2.79 µM (inactive), the GI50 (HT-29) was 3.59 µM (inactive) and the GI50 (Hs-578T) was 3.27 µM (inactive). The GI50 (IGROV-1) was 7.18 µM (inactive), the GI50 (KM12) was 4.44 µM (inactive) and the GI50 (LOX IMVI) was 3.32 µM (inactive). For the same compound, the GI50 (M14) was 4.47 µM (inactive), the GI50 (MCF7) was 3.22 µM (inactive) and the GI50 (MDA-MB-231) was 4.07 µM (inactive). For the same compound, the GI50 (MDA-MB-435) was 3.53 µM (inactive), the GI50 (MDA-N) was 3.55 µM (inactive) and the GI50 (MOLT-4) was > 10 µM (inactive). The GI50 (Malme-3M) was 1.36 µM (inactive), the GI50 (NCI-H226) was 2.54 µM (inactive) and the GI50 (NCI-H23) was 3.58 µM (inactive). For the same compound, the GI50 (NCI-H460) was 3.34 µM (inactive), the GI50 (NCI-H522) was 5.51 µM (inactive) and the GI50 (NCI/ADR-RES) was > 10 µM (inactive). For the same compound, the GI50 (OVCAR-3) was 2.04 µM (inactive), the GI50 (OVCAR-4) was 5.35 µM (inactive) and the GI50 (OVCAR-5) was 4.19 µM (inactive). For the same compound, the GI50 (OVCAR-8) was 3.48 µM (inactive), the GI50 (PC-3) was 3.27 µM (inactive) and the GI50 (RPMI-8226) was > 10 µM (inactive). For the same compound, the GI50 (RXF 393) was 7.28 µM (inactive), the GI50 (SF-268) was 1.87 µM (inactive) and the GI50 (SF-295) was 3.13 µM (inactive). The GI50 (SF-539) was 3.93 µM (inactive), the GI50 (SK-MEL-28) was 2.64 µM (inactive) and the GI50 (SK-MEL-2) was 3.37 µM (inactive). For the same compound, the GI50 (SK-MEL-5) was 1.77 µM (inactive), the GI50 (SK-OV-3) was 5.06 µM (inactive) and the GI50 (SN12C) was 3.23 µM (inactive). For the same compound, the GI50 (SNB-19) was 4.08 µM (inactive), the GI50 (SNB-75) was 3.29 µM (inactive) and the GI50 (SR) was > 10 µM (inactive). The GI50 (SW-620) was 2.53 µM (inactive), the GI50 (T47D) was 7.08 µM (inactive) and the GI50 (TK-10) was 7.89 µM (inactive). For the same compound, the GI50 (U-251) was 3.61 µM (inactive), the GI50 (UACC-257) was 5 µM (inactive) and the GI50 (UACC-62) was 3.9 µM (inactive).
